Experimental data reported in patent publication US20250188059A1, “NOVEL COMPOUND AND USE THEREOF FOR INHIBITING CHECKPOINT KINASE 2” (ARUM THERAPEUTICS INC, priority 2022, published 2025).
Read-outs that look alike come from different tables or passages of the source.

Assays:
Chk2 kinase = Chk2 kinase (Homo sapiens (Human), UniProt O96017); assay: Chk2 kinase inhibitory activity (LanthaScreen TR-FRET); assay type: biochemical; conditions: graded
Method: (§1) The compounds of Examples 1 to 66 were diluted at various concentrations and transferred to a 384-well plate by 5 μl, and 10 μl of a mixed solution (2×) of Chk1 kinase (Thermo, P3040) or Chk2 kinase (Thermo, PV3367) and a substrate (Thermo, PV3508) was added to wells treated with the compounds. 5 μl of an ATP solution at a 4× concentration was added to the test well and reacted at room temperature for 1 hour. 20 μl of LanthaScreen Terbium-CREB p-Ser 133 antibody (Thermo, PV3542) was added to the reaction well and incubated at room temperature for 30 minutes. Conversion data was measured by an EnVision 2014 multi label reader (PerkinElmer). The activity for each concentration was determined by the ratio (FRET ratio=FR) of the value obtained by dividing the value at 520 nm by the value at 490 nm among the emission wavelength values for each wavelength (Em520/Em490). The results obtained for each concentration of the compounds were the average values obtained in two wells, and the IC50 values of the compounds were calculated using PRIZM software for analysis of the results. IC50 in Table 7 was graded as follows.

Chk1 kinase = Chk1 kinase (Homo sapiens (Human), UniProt O14757); assay: Chk1 kinase inhibitory activity (LanthaScreen TR-FRET); assay type: biochemical; conditions: graded
Sequence of Chk1 kinase (O14757 whole entry): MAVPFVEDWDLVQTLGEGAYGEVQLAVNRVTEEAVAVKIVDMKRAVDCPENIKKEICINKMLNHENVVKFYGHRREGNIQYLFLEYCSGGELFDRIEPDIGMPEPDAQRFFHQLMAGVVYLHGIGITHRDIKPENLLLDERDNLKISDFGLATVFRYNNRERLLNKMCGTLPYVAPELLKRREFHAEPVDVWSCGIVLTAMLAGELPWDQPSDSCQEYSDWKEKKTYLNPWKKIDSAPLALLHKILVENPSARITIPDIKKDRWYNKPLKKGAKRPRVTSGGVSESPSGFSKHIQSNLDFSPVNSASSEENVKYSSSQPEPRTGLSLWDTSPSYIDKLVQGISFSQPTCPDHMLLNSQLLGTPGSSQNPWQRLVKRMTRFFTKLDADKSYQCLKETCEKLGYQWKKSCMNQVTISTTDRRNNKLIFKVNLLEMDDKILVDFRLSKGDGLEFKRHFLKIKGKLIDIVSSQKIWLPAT
Method: as §1

[1] = tested on: human breast cancer cell line MCF-7; assay: Cancer cell growth inhibition test (CellTiter-Glo); assay type: cell-based; conditions: MCF-7, 72 hours
Method: The human breast cancer cell line MCF-7 was treated with trypsin and harvested. The number of cells was counted, and about 3000 cells/80 μl per well were inoculated into a 96 well plate (Corning) and then incubated in a 37° C. incubator for 24 hours. Thereafter, the example compounds were diluted in a culture solution at various concentrations, and each well was treated with 20 μl and stored in a cell culture incubator for 72 hours. In the case of the group administered in combination, the example compounds and cisplatin or doxorubicin were diluted in a culture solution at various concentrations, and each well was treated with 20 μl. After 72 hours, each well was treated with 30 μl of CellTiter-Glo solution (Promega), and the luminescence was read on a Victor3 multi label reader (PerkinElmer).
Relative viability (%)=(value of each test well/value of well treated with DMSO alone)×100
The results obtained for each concentration for each example compound were the average values obtained from three wells, and PRIZM software was used for analysis of the results.

[2] = Homo sapiens, MCF7, 72 h, graded, read-out: Celltiter glo analysis (IC50)

Sequence of Chk2 kinase (O96017 whole entry): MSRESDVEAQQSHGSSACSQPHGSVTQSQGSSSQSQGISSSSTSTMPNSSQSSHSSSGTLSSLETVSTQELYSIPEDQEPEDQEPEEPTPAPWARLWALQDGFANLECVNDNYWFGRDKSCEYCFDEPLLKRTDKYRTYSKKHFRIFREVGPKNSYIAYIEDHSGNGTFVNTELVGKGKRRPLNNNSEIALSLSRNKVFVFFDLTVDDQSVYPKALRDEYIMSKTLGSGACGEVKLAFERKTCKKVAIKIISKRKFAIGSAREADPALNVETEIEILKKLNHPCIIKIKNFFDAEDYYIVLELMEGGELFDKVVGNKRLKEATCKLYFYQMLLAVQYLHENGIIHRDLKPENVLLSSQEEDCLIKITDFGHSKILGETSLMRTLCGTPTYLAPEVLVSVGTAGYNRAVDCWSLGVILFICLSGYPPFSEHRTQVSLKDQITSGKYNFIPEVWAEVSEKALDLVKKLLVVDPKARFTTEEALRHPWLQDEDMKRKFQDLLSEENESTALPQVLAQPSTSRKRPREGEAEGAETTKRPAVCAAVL

Row | IC50 (Chk2 kinase) [µM] | IC50 [1, 2] [µM] | further results | Compound
1 | ≤ 0.01 | > 100 | IC50 (Chk1 kinase): 0.01 to 0.1 µM | Cn1cc(-c2ccc(F)c(-c3cnc(N)c(C(=O)NC4CCC5(CC5)NC4)n3)c2)cn1 (racemic) [Example 40, 3-amino-6-(2-fluoro-5-(1-methyl-1H-pyrazol-4-yl)phenyl)-N-(4-azaspiro[2.5]octan-6-yl) pyrazine-2-carboxamide]
2 | > 1 | ≤ 10 |  | Nc1ncc(-c2cc(-c3cnn(CC(F)(F)F)c3)ccc2F)nc1C(=O)N[C@@H]1CNCC(F)(F)C1 [Example 12, (S)-3-amino-N-(5,5-difluoropiperidin-3-yl)-6-(2-fluoro-5-(1-(2,2,2-trifluoroethyl)-1H-pyrazol-4-yl)phenyl)pyrazine-2-carboxamide]
3 | 0.1 to 1 | ≤ 10 | IC50 ([1]; Homo sapiens, MCF7, 72 h, alone, read-out: Administered alone (IC50)): 8.59 µM; IC50 ([1]; combination with cisplatin, read-out: Administered in combination with cisplatin (IC50)): 2.93 µM; IC50 ([1]; combination with doxorubicin, read-out: Administered in combination with doxorubicin (IC50)): 0.91 µM | Nc1ncc(-c2ccnc(-c3cnn(CC(F)(F)F)c3)c2)nc1C(=O)N[C@@H]1CNCC(F)(F)C1 [Example 13, (S)-3-amino-N-(5,5-difluoropiperidin-3-yl)-6-(2-(1-(2,2,2-trifluoroethyl)-1H-pyrazol-4-yl)pyridin-4-yl)pyrazine-2-carboxamide]
4 | > 1 | 10 to 100 |  | CC(C)(O)Cn1cc(-c2cc(-c3cnc(N)c(C(=O)N[C@@H]4CNC[C@@H](F)C4)n3)c(F)cn2)cn1 [Example 22, 3-amino-6-(5-fluoro-2-(1-(2-hydroxy-2-methylpropyl)-1H-pyrazol-4-yl)pyridin-4-yl)-N-((3S,5S)-5-fluoropiperidin-3-yl)pyrazine-2-carboxamide]
5 | ≤ 0.01 | 10 to 100 |  | Nc1ncc(-c2cc(-c3cnn(CC(F)(F)F)c3)ccc2O)nc1C(=O)N[C@@H]1CNC[C@@H](F)C1 [Example 23, 3-amino-N-((3S,5S)-5-fluoropiperidin-3-yl)-6-(2-hydroxy-5-(1-(2,2,2-trifluoroethyl)-1H-pyrazol-4-yl)phenyl)pyrazine-2-carboxamide]
6 | ≤ 0.01 | 10 to 100 |  | Nc1ncc(-c2cc(-c3cnn(CC(F)(F)F)c3)ccc2O)nc1C(=O)N[C@H]1CCCNC1 [Example 24, (S)-3-amino-6-(2-hydroxy-5-(1-(2,2,2-trifluoroethyl)-1H-pyrazol-4-yl)phenyl)-N-(piperidin-3-yl) pyrazine-2-carboxamide]
7 |  |  | IC50 (Chk1 kinase): 0.01 to 0.1 µM | CC(C)(O)Cn1cc(-c2cc(-c3cnc(N)c(C(=O)N[C@@H]4CNC[C@@H](F)C4)n3)ccn2)cn1 [Example 34, 3-amino-N-((3S,5S)-5-fluoropiperidin-3-yl)-6-(2-(1-(2-hydroxy-2-methylpropyl)-1H-pyrazol-4-yl)pyridin-4-yl)pyrazine-2-carboxamide]
8 | 0.01 to 0.1 | 10 to 100 |  | CC1(C)Cc2c(-c3ccc(F)c(-c4cnc(N)c(C(=O)N[C@@H]5CNCC[C@H]5O)n4)c3)cnn2C1 [Example 47, 3-amino-6-(5-(5,5-dimethyl-5,6-dihydro-4H-pyrrolo[1,2-b]pyrazol-3-yl)-2-fluorophenyl)-N-((3R,4R)-4-hydroxypiperidine-3-yl) pyrazine-2-carboxamide]
9 | ≤ 0.01 | 10 to 100 |  | CC1(C)Cc2c(-c3cc(-c4cnc(N)c(C(=O)N[C@@H]5CNC[C@@H](F)C5)n4)ccn3)cnn2C1 [Example 48, 3-amino-6-(2-(5,5-dimethyl-5,6-dihydro-4H-pyrrolo[1,2-b]pyrazol-3-yl)pyridin-4-yl)-N-((3S,5S)-5-fluoropiperidin-3-yl)pyrazine-2-carboxamide]
10 | ≤ 0.01 | 10 to 100 |  | CC1(C)Cc2c(-c3cc(-c4cnc(N)c(C(=O)N[C@H]5CCCNC5)n4)ccn3)cnn2C1 [Example 49, (S)-3-amino-6-(2-(5,5-dimethyl-5,6-dihydro-4H-pyrrolo[1,2-b]pyrazol-3-yl)pyridin-4-yl)-N-(piperidin-3-yl)pyrazine-2-carboxamide]
11 | ≤ 0.01 | 10 to 100 |  | CC1(C)Cc2c(-c3cc(-c4cnc(N)c(C(=O)N[C@H]5CCC6(CC6)NC5)n4)ccn3)cnn2C1 [Example 50, (S)-3-amino-6-(2-(5,5-dimethyl-5,6-dihydro-4H-pyrrolo[1,2-b]pyrazol-3-yl)pyridin-4-yl)-N-(4-azaspiro[2.5]octan-6-yl)pyrazine-2-carboxamide]
12 | ≤ 0.01 |  | IC50 ([1]; graded, read-out: Celltiter glo analysis (IC50)): 10 to 100 µM | CC1(C)Cc2c(-c3cccc(-c4cnc(N)c(C(=O)N[C@H]5CCC6(CC6)NC5)n4)c3)cnn2C1 [Example 51, (S)-3-amino-6-(3-(5,5-dimethyl-5,6-dihydro-4H-pyrrolo[1,2-b]pyrazol-3-yl)phenyl)-N-(4-azaspiro[2.5]octan-6-yl)pyrazine-2-carboxamide]
13 | 0.01 to 0.1 | 10 to 100 |  | CC1(C)Cc2c(-c3cccc(-c4cnc(N)c(C(=O)N[C@@H]5CNCC[C@H]5O)n4)c3)cnn2C1 [Example 52, 3-amino-6-(3-(5,5-dimethyl-5,6-dihydro-4H-pyrrolo[1,2-b]pyrazol-3-yl)phenyl)-N-((3R,4R)-4-hydroxypiperidine-3-yl)pyrazine-2-carboxamide]
14 | 0.01 to 0.1 | > 100 |  | CC1(C)Cc2c(-c3cc(-c4cnc(N)c(C(=O)N[C@@H]5CNCC[C@H]5O)n4)ccn3)cnn2C1 [Example 53, 3-amino-6-(2-(5,5-dimethyl-5,6-dihydro-4H-pyrrolo[1,2-b]pyrazol-3-yl)pyridin-4-yl)-N-((3R,4R)-4-hydroxypiperidin-3-yl)pyrazine-2-carboxamide]
15 | ≤ 0.01 | > 100 |  | CC1(C)Cc2c(-c3cc(-c4cnc(N)c(C(=O)N[C@@H]5CNC[C@H]5O)n4)ccn3)cnn2C1 [Example 54, 3-amino-6-(2-(5,5-dimethyl-5,6-dihydro-4H-pyrrolo[1,2-b]pyrazol-3-yl)pyridin-4-yl)-N-((3R,4R)-4-hydroxypyrrolidin-3-yl)pyrazine-2-carboxamide]
16 | ≤ 0.01 | 10 to 100 |  | CC1(C)Cc2c(-c3ccc(O)c(-c4cnc(N)c(C(=O)N[C@@H]5CNC[C@@H](F)C5)n4)c3)cnn2C1 [Example 55, 3-amino-6-(5-(5,5-dimethyl-5,6-dihydro-4H-pyrrolo[1,2-b]pyrazol-3-yl)-2-hydroxyphenyl)-N-((3S,5S)-5-fluoropiperidin-3-yl)pyrazine-2-carboxamide]
17 | ≤ 0.01 | 10 to 100 |  | CC1(C)Cc2c(-c3ccc(O)c(-c4cnc(N)c(C(=O)N[C@H]5CCC6(CC6)NC5)n4)c3)cnn2C1 [Example 56, (S)-3-amino-6-(5-(5,5-dimethyl-5,6-dihydro-4H-pyrrolo[1,2-b]pyrazol-3-yl)-2-hydroxyphenyl)-N-(4-azaspiro[2.5]octan-6-yl)pyrazine-2-carboxamide]
18 | 0.01 to 0.1 | > 100 |  | CC1(C)Cc2c(-c3ccc(O)c(-c4cnc(N)c(C(=O)N[C@@H]5CNC[C@H]5O)n4)c3)cnn2C1 [Example 57, 3-amino-6-(5-(5,5-dimethyl-5,6-dihydro-4H-pyrrolo[1,2-b]pyrazol-3-yl)-2-hydroxyphenyl)-N-((3R,4R)-4-hydroxypyrrolidin-3-yl)pyrazine-2-carboxamide]
19 | ≤ 0.01 | 10 to 100 |  | CC1(C)Cc2c(-c3cccc(-c4cnc(N)c(C(=O)N[C@@H]5CNCCC5(F)F)n4)c3)cnn2C1 [Example 58, 3-amino-N-(4,4-difluoropiperidin-3-y)-6-(3-(5,5-dimethyl-5,6-dihydro-4H-pyrrolo[1,2-b]pyrazol-3-yl)phenyl)pyrazine-2-carboxamide]
20 | ≤ 0.01 | > 100 |  | CC1(C)Cc2c(-c3cccc(-c4cnc(N)c(C(=O)N[C@@H]5CNC[C@H]5O)n4)c3)cnn2C1 [Example 60, 3-amino-6-(3-(5,5-dimethyl-5,6-dihydro-4H-pyrrolo[1,2-b]pyrazol-3-yl)phenyl)-N-((3R,4R)-4-hydroxypyrrolidin-3-yl)pyrazine-2-carboxamide]
21 | 0.01 to 0.1 | 10 to 100 |  | CC1(C)Cc2c(-c3cccc(-c4cnc(N)c(C(=O)N[C@H]5CNC[C@@H]5F)n4)c3)cnn2C1 [Example 62, 3-amino-6-(3-(5,5-dimethyl-5,6-dihydro-4H-pyrrolo[1,2-b]pyrazol-3-yl)phenyl)-N-((3S,4S)-4-fluoropyrrolidin-3-yl) pyrazine-2-carboxamide]
22 | ≤ 0.01 | 10 to 100 |  | CC1(C)Cc2c(-c3nccc(-c4cnc(N)c(C(=O)N[C@H]5CCC6(CC6)NC5)n4)n3)cnn2C1 [Example 63, (S)-3-amino-6-(2-(5,5-dimethyl-5,6-dihydro-4H-pyrrolo[1,2-b]pyrazol-3-yl)pyrimidin-4-yl)-N-(4-azaspiro[2.5]octan-6-yl) pyrazine-2-carboxamide]
